Experimental data: US20070128217A1 (priority 2003, published 2007)

Columns and labels:
[1] = system: antibodies in sera from SARS patients (sera 1a, 1b, 2, 6, 37, 62, London, SARS-yellow, SARS-green); type: binding, human; set-up: Binding of serum 6 to linear peptides of protein X1 of SARS-CoV Urbani / Binding of serum 37 to linear peptides of protein X1 of SARS-CoV Urbani / Binding of serum 6 to looped/cyclic peptide (PEPSCAN-ELISA) / Binding of serum 37 to looped/cyclic peptide (PEPSCAN-ELISA) / Binding of serum 37 to looped/cyclic peptides of protein X1 of SARS-CoV Urbani / Binding of serum 6 to linear peptides of protein X2 / Binding of serum 37 to linear peptides of protein X2 / Binding of serum 37 to looped/cyclic peptides of protein X2 of SARS-CoV Urbani / Binding of serum 6 to linear peptides of protein M of SARS-CoV Urbani / Binding of serum 37 to linear peptides of protein M of SARS-CoV Urbani / Binding of serum 6 to looped/cyclic peptides of protein M of SARS-CoV Urbani / Binding of serum 37 to looped/cyclic peptides of protein M of SARS-CoV Urbani / Binding of serum 6 to linear peptides of protein X3 of SARS-CoV Urbani / Binding of serum 37 to linear peptides of protein X3 of SARS-CoV Urbani / Binding of serum 37 to looped/cyclic peptides of protein X3 of SARS-CoV Urbani / Binding of serum 6 to linear peptides of protein X4 of SARS-CoV Urbani / Binding of serum 37 to linear peptides of protein X4 of SARS-CoV Urbani / Binding of serum 37 to looped/cyclic peptides of protein X4 of SARS-CoV Urbani / Binding of serum 6 to linear peptides of protein X5 of SARS-CoV Urbani / Binding of serum 37 to linear peptides of protein X5 of SARS-CoV Urbani / Binding of serum 37 to looped/cyclic peptides of protein X5 of SARS-CoV Urbani / Binding of serum 6 to linear peptides of protein N of SARS-CoV Urbani / Binding of serum 37 to linear peptides of protein N of SARS-CoV Urbani / Binding of serum 6 to linear peptide (PEPSCAN-ELISA) / Binding of serum 1a to looped/cyclic peptides of protein N of SARS-CoV Urbani / Binding of serum 1b to looped/cyclic peptides of protein N of SARS-CoV Urbani / Binding of serum 2 to looped/cyclic peptides of protein N of SARS-CoV Urbani / Binding of serum 6 to looped/cyclic peptides of protein N of SARS-CoV Urbani / Binding of serum 37 to looped/cyclic peptides of protein N of SARS-CoV Urbani / Binding of serum 62 to looped/cyclic peptides of protein N of SARS-CoV Urbani / Binding of serum London to looped/cyclic peptides of protein N of SARS-CoV Urbani / Binding of serum SARS-green to looped/cyclic peptides of protein N of SARS-CoV Urbani: unit not given here
[2] = system: control sera (pooled serum of ten healthy LUMC hospital workers; commercial negative donor pooled serum from the Dutch bloodbank); type: binding, human; set-up: Binding of Control serum LUMC to linear peptides / Binding of Control serum Blood-bank to linear peptides / Binding of Control serum LUMC to looped peptides / Binding of Control Serum Blood-Bank to Looped peptides / Binding of Control serum LUMC to linear peptides of the protein M of SARS-CoV Urbani / Binding of Control serum Blood-bank to linear peptides of the protein M of SARS-CoV Urbani / Binding of Control serum LUMC to looped peptides of the protein M of SARS-CoV Urbani / Binding of Control Serum Blood-Bank to Looped peptides of the protein M of SARS-CoV Urbani: unit not given here
[3] = system: rabbit serum obtained by immunizing a rabbit with the SARS-CoV strain Frankfurt 1; type: binding; set-up: Binding of a rabbit serum to linear peptides / Binding of a rabbit serum to looped peptides / Rabbit serum linear peptides / Rabbit serum looped peptides / Binding of a rabbit serum to linear peptides of protein N of SARS-CoV Urbani (Rabbit serum linear peptides) / Binding of a rabbit serum to looped/cyclic peptides of protein N of SARS-CoV Urbani (Rabbit serum looped peptides): unit not given here

CWKCKSKNPLLYDAN
Binding of serum 1a to looped/cyclic peptide (PEPSCAN-ELISA) [1]: 0.7 | Binding of serum 1b to looped/cyclic peptide (PEPSCAN-ELISA) [1]: 0.6 | Binding of serum 2 to looped/cyclic peptide (PEPSCAN-ELISA) [1]: 0.5 | Binding of serum 6 to looped/cyclic peptide (PEPSCAN-ELISA) [1]: 0.4 | Binding of serum 37 to looped/cyclic peptide (PEPSCAN-ELISA) [1]: 0.7 | Binding of serum 62 to looped/cyclic peptide (PEPSCAN-ELISA) [1]: 0.6 | Binding of serum London to looped/cyclic peptide (PEPSCAN-ELISA) [1]: 0.3 | Binding of serum SARS-green to looped/cyclic peptide (PEPSCAN-ELISA) [1]: 0.2 | Binding of serum SARS-yellow to looped/cyclic peptide (PEPSCAN-ELISA) [1]: 0.6 | Recognition of the peptide by sera of SARS-CoV infected individuals, and form (linear, looped/cyclic) in which it is recognized [1]: recognized in linear form | Binding of Control Serum Blood-Bank to Looped peptides [2]: 0.7 | Binding of Control serum Blood-bank to linear peptides [2]: 0.7 | Binding of Control serum LUMC to linear peptides [2]: 0.8 | Binding of Control serum LUMC to looped peptides [2]: 0.7 | Binding of a rabbit serum to linear peptides [3]: 0.1 | Binding of a rabbit serum to looped peptides [3]: 0.5

LYALIYFLQCINACR
Binding of serum 1a to linear peptides of protein X1 of SARS-CoV Urbani [1]: 0.7 | Binding of serum 1a to looped/cyclic peptide (PEPSCAN-ELISA) [1]: 0.4 | Binding of serum 1b to linear peptides of protein X1 of SARS-CoV Urbani [1]: 0.5 | Binding of serum 1b to looped/cyclic peptide (PEPSCAN-ELISA) [1]: 0.3 | Binding of serum 2 to linear peptides of protein X1 of SARS-CoV Urbani [1]: 0.5 | Binding of serum 2 to looped/cyclic peptide (PEPSCAN-ELISA) [1]: 0.6 | Binding of serum 6 to linear peptides of protein X1 of SARS-CoV Urbani [1]: 0.5 | Binding of serum 6 to looped/cyclic peptide (PEPSCAN-ELISA) [1]: 0.7 | Binding of serum 37 to linear peptides of protein X1 of SARS-CoV Urbani [1]: 0.6 | Binding of serum 37 to looped/cyclic peptide (PEPSCAN-ELISA) [1]: 0.6 | Binding of serum 62 to linear peptides of protein X1 of SARS-CoV Urbani [1]: 0.6 | Binding of serum 62 to looped/cyclic peptide (PEPSCAN-ELISA) [1]: 0.5 | Binding of serum London to linear peptides of protein X1 of SARS-CoV Urbani [1]: 0.3 | Binding of serum London to looped/cyclic peptide (PEPSCAN-ELISA) [1]: 1.2 | Binding of serum SARS-green to linear peptides of protein X1 of SARS-CoV Urbani [1]: 0.1 | Binding of serum SARS-green to looped/cyclic peptide (PEPSCAN-ELISA) [1]: 0.2 | Binding of serum SARS-yellow to linear peptides of protein X1 of SARS-CoV Urbani [1]: 0.4 | Binding of serum SARS-yellow to looped/cyclic peptide (PEPSCAN-ELISA) [1]: 0.2 | Binding of Control Serum Blood-Bank to Looped peptides [2]: 0.4 | Binding of Control serum Blood-bank to linear peptides [2]: 0.7 | Binding of Control serum LUMC to linear peptides [2]: 0.6 | Binding of Control serum LUMC to looped peptides [2]: 0.6 | Binding of a rabbit serum to linear peptides [3]: 0.2 | Binding of a rabbit serum to looped peptides [3]: 0.6

ASFRLFARTRSMWSF
Binding of serum 1a to linear peptides of protein M of SARS-CoV Urbani [1]: 0.7 | Binding of serum 1a to looped/cyclic peptides of protein M of SARS-CoV Urbani [1]: 0.6 | Binding of serum 1b to linear peptides of protein M of SARS-CoV Urbani [1]: 0.6 | Binding of serum 1b to looped/cyclic peptides of protein M of SARS-CoV Urbani [1]: 0.5 | Binding of serum 2 to linear peptides of protein M of SARS-CoV Urbani [1]: 0.5 | Binding of serum 2 to looped/cyclic peptides of protein M of SARS-CoV Urbani [1]: 0.5 | Binding of serum 6 to linear peptides of protein M of SARS-CoV Urbani [1]: 0.7 | Binding of serum 6 to looped/cyclic peptides of protein M of SARS-CoV Urbani [1]: 0.9 | Binding of serum 37 to linear peptides of protein M of SARS-CoV Urbani [1]: 0.4 | Binding of serum 37 to looped/cyclic peptides of protein M of SARS-CoV Urbani [1]: 0.5 | Binding of serum 62 to linear peptides of protein M of SARS-CoV Urbani [1]: 0.4 | Binding of serum 62 to looped/cyclic peptides of protein M of SARS-CoV Urbani [1]: 0.5 | Binding of serum London to linear peptides of protein M of SARS-CoV Urbani [1]: 0.3 | Binding of serum London to looped/cyclic peptides of protein M of SARS-CoV Urbani [1]: 0.2 | Binding of serum SARS-green to linear peptides of protein M of SARS-CoV Urbani [1]: 0.4 | Binding of serum SARS-green to looped/cyclic peptides of protein M of SARS-CoV Urbani [1]: 0.2 | Binding of serum SARS-yellow to linear peptides of protein M of SARS-CoV Urbani [1]: 0.2 | Binding of serum SARS-yellow to looped/cyclic peptides of protein M of SARS-CoV Urbani [1]: 0.6 | Binding of Control Serum Blood-Bank to Looped peptides of the protein M of SARS-CoV Urbani [2]: 0.7 | Binding of Control serum Blood-bank to linear peptides of the protein M of SARS-CoV Urbani [2]: 0.7 | Binding of Control serum LUMC to linear peptides of the protein M of SARS-CoV Urbani [2]: 0.6 | Binding of Control serum LUMC to looped peptides of the protein M of SARS-CoV Urbani [2]: 0.7 | Rabbit serum linear peptides [3]: 0.3 | Rabbit serum looped peptides [3]: 0.2
